Test results: ChEMBL document CHEMBL4354808, “Drugs for the Treatment of Zika Virus Infection” (J Med Chem, 2020)
Values after ≈ are worked out from the molar mass of the structure shown. Non-standard residues stand in square brackets, D forms with d. Residues, ends and D or L forms follow the SMILES beside them. *: point of attachment. Pro(4R-Me) = C[C@H]1CN[C@H](C(=O)O)C1; Oleoyl = CCCCCCCC/C=C\CCCCCCCC(=O)*; hSer = N[C@@H](CCO)C(=O)O

Key:
Nonstructural protein 3 = Nonstructural protein 3 (Zika virus, UniProt A0A024AXB9); experiment: Inhibition of N-terminal His6-tagged Zika virus NS2B (45 to 96 residues) - NS3 (1 to 177 residues) protease domain expressed in Escherichia coli BL21-Gold (DE3) cells or Escherichia coli BL21 Rosetta (DE3) preincubated for 30 mins followed by Bz-nKRR-AM substrate addition measured over 10 mins at 60 secs interval by fluorescence method
Sequence of Nonstructural protein 3 (A0A024AXB9 whole entry, the tested form may be a part): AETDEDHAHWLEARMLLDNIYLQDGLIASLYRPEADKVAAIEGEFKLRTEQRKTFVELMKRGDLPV

[1] = Inhibition of Protein E in Zika virus infected in African green monkey Vero cells assessed as antiviral activity preincubated for 1 hr followed by viral infection and measured 24 hr post infection by plaque assay; assay type: cell-based
[2] = Cytotoxicity against African green monkey Vero cells; assay type: cell-based; settings: chlorocebus sabaeus
Zika virus [3] = experiment: Antiviral activity against Zika virus MR 766 infected in HBMEC measured 5 days post infection by CellTiter Blue assay; assay type: functional, organism-based; settings: MR 766, 120 h
[4] = Cytotoxicity against African green monkey Vero cells after 5 days by CellTiter Blue assay; assay type: cell-based; settings: chlorocebus sabaeus
[5] = Cytotoxicity against human NSC after 5 days by CellTiter Blue assay; assay type: cell-based; settings: NSC cells
[6] = Cytotoxicity against HBMEC after 5 days by CellTiter Blue assay; settings: human
Zika virus [7] = experiment: Antiviral activity against Zika virus MR 766 infected in African green monkey Vero cells measured 5 days post infection by CellTiter Blue assay; assay type: functional, organism-based; settings: MR 766, Vero, 120 h
Zika virus [8] = experiment: Antiviral activity against Zika virus MR 766 infected in human NSC measured 5 days post infection by CellTiter Blue assay; assay type: functional, organism-based; settings: MR 766, 120 h
[9] = Cytotoxicity against African green monkey Vero E6 cells measured up to 24 to 72 hrs by MTT assay; assay type: cell-based, Vero C1008; settings: chlorocebus sabaeus
Zika virus [10] = experiment: Antiviral activity against Zika virus infected in African green monkey Vero E6 cells assessed as reduction in virus infectivity preincubated with virus for 1 hr followed by cell infection and measured after 96 hrs by crystal violet staining based assay; assay type: functional, organism-based; settings: Vero C1008
Zika virus [11] = experiment: Antiviral activity against Zika virus infected in African green monkey Vero E6 cells assessed as reduction in virus infectivity at 40 uM preincubated with virus for 1 hr followed by cell infection and measured after 96 hrs by crystal violet staining based assay relative to control; assay type: functional; settings: Vero C1008
Genome polyprotein = Genome polyprotein (dengue virus type 2, UniProt P29990); experiment: Inhibition of Dengue virus 2 NS2B (48 to 95 residues)-NS3 (1 to 185 residues) expressed in Escherichia coli BL21 Rosetta (DE3) incubated for 30 mins followed by Abz-RRRRSAG-nTyr substrate addition
Sequence of Genome polyprotein (P29990 1346-1475 limits assumed): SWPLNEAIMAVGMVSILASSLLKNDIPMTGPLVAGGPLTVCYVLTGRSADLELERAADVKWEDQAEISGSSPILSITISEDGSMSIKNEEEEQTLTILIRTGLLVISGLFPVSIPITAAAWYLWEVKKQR
Sequence of Genome polyprotein (P29990 1476-2093 limits assumed): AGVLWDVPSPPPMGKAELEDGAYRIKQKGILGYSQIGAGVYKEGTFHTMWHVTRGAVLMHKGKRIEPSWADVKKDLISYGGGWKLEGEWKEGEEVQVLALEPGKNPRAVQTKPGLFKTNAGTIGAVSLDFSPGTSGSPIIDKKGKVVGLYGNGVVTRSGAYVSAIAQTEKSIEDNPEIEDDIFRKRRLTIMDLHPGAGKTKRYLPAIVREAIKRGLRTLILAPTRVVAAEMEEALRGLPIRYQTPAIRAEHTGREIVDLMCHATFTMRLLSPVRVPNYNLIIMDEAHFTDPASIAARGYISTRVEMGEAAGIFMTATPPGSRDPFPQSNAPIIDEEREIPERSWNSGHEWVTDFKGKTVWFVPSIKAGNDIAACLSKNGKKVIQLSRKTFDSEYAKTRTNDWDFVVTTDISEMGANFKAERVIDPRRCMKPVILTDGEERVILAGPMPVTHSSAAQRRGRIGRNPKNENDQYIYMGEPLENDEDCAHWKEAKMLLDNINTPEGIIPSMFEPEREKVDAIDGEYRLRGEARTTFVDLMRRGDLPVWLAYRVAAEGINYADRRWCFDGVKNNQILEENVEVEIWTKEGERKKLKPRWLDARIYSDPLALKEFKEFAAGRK

West Nile virus = experiment: Antiviral activity against West Nile virus NY003356V2 infected in human A549 cells after 48 hrs by plaque reduction assay; assay type: functional, organism-based; settings: NY003356V2, A549, 48 h
Yellow fever virus = experiment: Antiviral activity against Yellow fever virus 17D V3 Vaccine infected in human A549 cells after 48 hrs by plaque reduction assay; assay type: functional, organism-based; settings: A549, 48 h
Zika virus [12] = experiment: Antiviral activity against Zika virus Puerto Rico/PRVABC59 infected in human A549 cells after 48 hrs by plaque reduction assay; assay type: functional, organism-based; settings: Puerto Rico/PRVABC59, A549, 48 h
[13] = Cytotoxicity against human A549 cells after 42 hrs by WST-8 cell proliferation assay; assay type: cell-based
dengue virus type 2 = experiment: Antiviral activity against Dengue virus 2 New Guinea C infected in human A549 cells after 48 hrs by plaque reduction assay; assay type: functional, organism-based; settings: A549, 48 h
[14] = Inhibition of Protein E in Zika virus MR766 infected in BHK21 cells assessed as antiviral activity after 12 hrs by CCK8 assay; assay type: cell-based; settings: MR766, BHK-21, 12 h
[15] = Cytotoxicity against human HuH7 cells after 24 hrs by CCK8 assay; assay type: cell-based; settings: Huh-7 cells
[16] = Cytotoxicity against African green monkey Vero cells after 24 hrs by CCK8 assay; assay type: cell-based; settings: chlorocebus sabaeus
[17] = Inhibition of Protein E in Zika virus SZ01 infected in BHK21 cells assessed as antiviral activity after 12 hrs by CCK8 assay; assay type: cell-based; settings: SZ01, BHK-21, 12 h
[18] = Cytotoxicity against BHK21 cells after 24 hrs by CCK8 assay; assay type: cell-based, Mesocricetus auratus; settings: hamster, BHK-21 cells
[19] = Inhibition of Protein E in Zika virus FLR infected in BHK21 cells assessed as antiviral activity after 12 hrs by CCK8 assay; assay type: cell-based; settings: BHK-21, 12 h
[20] = Cytotoxicity against human JEG3 cells by alamarBlue assay; assay type: cell-based; settings: JEG-3 cells
Zika virus [21] = experiment: Antiviral activity against Zika virus PRVABC59 Puerto Rico infected in human JEG3 cells after 24 hrs by plaque assay; assay type: functional, organism-based; settings: JEG-3, 24 h
[22] = Cytotoxicity against African green monkey Vero cells by MTT assay; assay type: cell-based; settings: chlorocebus sabaeus
[23] = Cytotoxicity against human HuH7 cells by MTT assay; assay type: cell-based; settings: Huh-7 cells
[24] = Activation of AMPK in African green monkey Vero cells infected with Zika virus PA259459 assessed as antiviral activity measured 24 hrs post infection by plaque assay; assay type: cell-based; settings: Chlorocebus aethiops
Zika virus [25] = experiment: Antiviral activity against Zika virus infected in human A549 cells; assay type: functional, organism-based
[26] = Cytotoxicity against human A549 cells; assay type: cell-based

**Q.** With COc1ccc(S(=O)(=O)n2nc(OC(=O)c3ccccc3)cc2N)cc1 as the compound, how does the IC50 (Nonstructural protein 3) read?
**A.** 1.5 µM

**Q.** With CC[C@H](C)[C@H](NC(=O)[C@H](CO)NC(=O)CNC(=O)[C@H](Cc1ccccc1)NC(=O)[C@H](CC(=O)O)NC(=O)[C@H](Cc1c[nH]c2ccccc12)NC(=O)[C@H](C)N)C(=O)NCC(=O)NCC(=O)N[C@H](C(=O)N[C@@H](Cc1ccccc1)C(=O)N[C@@H](CC(N)=O)C(=O)N[C@@H](CO)C(=O)N[C@H](C(=O)NCC(=O)N[C@@H](CCCCN)C(=O)N[C@@H](C)C(=O)N[C@H](C(=O)N[C@@H](Cc1cnc[nH]1)C(=O)N[C@@H](CCC(N)=O)C(=O)N[C@H](C(=O)N[C@@H](Cc1ccccc1)C(=O)O)C(C)C)C(C)C)[C@@H](C)CC)C(C)C as the compound, how does the EC50 [1] read?
**A.** 3.27 µM

**Q.** And the CC50 [2]?
**A.** > 10 µM

**Q.** Which EC50 (Zika virus [3]) does the source give for CCN(CC)CCCC(C)Nc1ccnc2cc(Cl)ccc12 (stereo unspecified) [CHLOROQUINE] here?
**A.** 9.82 to 14.2 µM

**Q.** And the CC50 at 120 h [4]?
**A.** 95 to 135 µM

**Q.** And the CC50 at 120 h [5]?
**A.** 95 to 135 µM

**Q.** And the CC50 at 120 h [6]?
**A.** 95 to 135 µM

**Q.** What about the EC50 (Zika virus [7]) of the same compound?
**A.** 9.82 to 14.2 µM

**Q.** And the EC50 (Zika virus [8])?
**A.** 9.82 to 14.2 µM

**Q.** What does the source list for Cc1cc(O)c2c(c1)C(=O)c1cc(O)cc(O)c1C2=O [EMODIN]?
**A.** CC50 [9]: 68.6 µM; IC50 (Zika virus [10]): 3.2 µM; inhibition at 40 µM (Zika virus [11]): 88.3%

**Q.** Which results are given for O=C1C=C/C(=N/Nc2ccc([N+](=O)[O-])cc2Cl)C=C1C(=O)Nc1cccc(Cl)c1?
**A.** IC50 (Genome polyprotein): 1.8 µM; EC50 (West Nile virus): 1.27 µM; EC50 (Yellow fever virus): 0.28 µM; EC50 (Zika virus [12]): 1 µM; CC50 at 42 h [13]: 48.8 µM; EC50 (dengue virus type 2): 0.81 µM

**Q.** Which EC50 [14] does the source give for CC[C@H](C)[C@H](NC(=O)CNC(=O)[C@H](CCCCN)NC(=O)CNC(=O)[C@H](CC(C)C)NC(=O)[C@H](CO)NC(=O)[C@H](CC(N)=O)NC(=O)[C@H](CC(C)C)NC(=O)[C@H](C)NC(=O)CNC(=O)CNC(=O)[C@@H](NC(=O)[C@H](CO)NC(=O)CNC(=O)[C@H](Cc1ccccc1)NC(=O)[C@H](CC(=O)O)NC(=O)[C@H](Cc1c[nH]c2ccccc12)NC(=O)[C@H](C)NC(=O)[C@@H](NC(=O)[C@H](CC(=O)O)NC(=O)CNC(=O)[C@H](CC(C)C)NC(=O)[C@@H](NC(=O)[C@H](C)NC(=O)[C@@H](N)CCSC)C(C)C)[C@@H](C)O)C(C)C)C(=O)N[C@@H](Cc1cnc[nH]1)C(=O)N[C@@H](CCC(N)=O)C(=O)N[C@H](C(=O)N[C@@H](Cc1ccccc1)C(=O)NCC(=O)N[C@@H](C)C(=O)N[C@@H](C)C(=O)N[C@@H](Cc1ccccc1)C(=O)O)[C@@H](C)CC (H-MAVLGDTAWDFGSVGGALNSLGKGIHQIFGAAF-OH) here?
**A.** 1.75 to 13.9 µM

**Q.** What about the CC50 at 24 h [15] of the same compound?
**A.** > 50 µM

**Q.** What about the CC50 at 24 h [16] of the same compound?
**A.** > 50 µM

**Q.** What about the EC50 [17] of the same compound?
**A.** 1.75 to 13.9 µM

**Q.** And the CC50 at 24 h [18]?
**A.** > 50 µM

**Q.** And the EC50 [19]?
**A.** 1.75 to 13.9 µM

**Q.** With O=C1C[C@@H](c2ccccc2)Oc2cc(O)cc(O)c21 [PINOCEMBRIN] as the compound, how does the CC50 [20] read?
**A.** 251 µM

**Q.** What about the EC50 (Zika virus [21]) of the same compound?
**A.** 17.4 µM

**Q.** Which results are given for CO[C@@H]1[C@@H](OC(N)=O)[C@@H](O)[C@H](Oc2ccc3c(O)c(NC(=O)c4ccc(O)c(CC=C(C)C)c4)c(=O)oc3c2C)OC1(C)C [NOVOBIOCIN]?
**A.** CC50 [22]: 850 µg/mL (≈ 1390 µM); CC50 [23]: 1100 µg/mL (≈ 1800 µM)

**Q.** With O=C(O)c1c[nH]c2cc(Cl)c(-c3ccc(C4(O)CCC4)cc3)cc12 as the compound, how does the EC50 [24] read?
**A.** 2.6 µM

**Q.** For CCCCCCCC/C=C\CCCCCCCC(=O)N[C@H](C(=O)N1C[C@H](C)C[C@H]1C(=O)N[C@H](C(=O)N[C@@H](CCO)C(=O)N[C@@H](C)C=O)C(C)C)[C@@H](C)O (Oleoyl-T[Pro(4R-Me)]V[hSer]A-aldehyde), which EC50 (Zika virus [25]) is on record?
**A.** 0.15 µM

**Q.** And the CC50 [26]?
**A.** 1.65 µM
